Entries after “also recorded” stand apart in the source; their conditions may differ.
Key:
[1] = system: LAM fibroblasts from Arom^hum mice; test: Click-iT EdU proliferation assay; type: cell-based, mouse; conditions: 1 μM antagonist; E2 (10 nM)+R5020 (100 nM)
[2] = system: LAM primary fibroblasts from Arom^hum mice; test: mRNA levels of P4/PGR-responsive and fibrotic genes in LAM primary fibroblasts; type: cell-based, mouse
[3] = long-term use; cited from earlier work
aromatase enzyme = molecular target: T1, aromatase enzyme (Homo sapiens, UniProt P11511); conditions: cited from earlier work
T1 sequence (P11511 1-503): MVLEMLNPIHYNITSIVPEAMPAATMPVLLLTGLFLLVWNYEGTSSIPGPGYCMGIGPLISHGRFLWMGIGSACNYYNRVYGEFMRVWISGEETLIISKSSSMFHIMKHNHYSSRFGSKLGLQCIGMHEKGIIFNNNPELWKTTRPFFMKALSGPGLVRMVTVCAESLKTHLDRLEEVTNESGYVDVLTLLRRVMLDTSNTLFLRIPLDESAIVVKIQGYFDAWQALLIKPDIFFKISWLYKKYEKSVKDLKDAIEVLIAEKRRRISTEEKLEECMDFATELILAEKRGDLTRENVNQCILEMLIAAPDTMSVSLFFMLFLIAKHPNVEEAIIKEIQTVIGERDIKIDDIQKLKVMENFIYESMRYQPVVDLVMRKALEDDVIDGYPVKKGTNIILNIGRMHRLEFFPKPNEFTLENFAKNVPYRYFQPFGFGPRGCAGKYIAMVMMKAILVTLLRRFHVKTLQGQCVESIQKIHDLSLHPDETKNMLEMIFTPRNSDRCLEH

[4] = molecular target: T2, glucocorticoid receptor (GR) (Homo sapiens, UniProt P04150); conditions: cited from earlier work
T2 sequence (P04150 1-777): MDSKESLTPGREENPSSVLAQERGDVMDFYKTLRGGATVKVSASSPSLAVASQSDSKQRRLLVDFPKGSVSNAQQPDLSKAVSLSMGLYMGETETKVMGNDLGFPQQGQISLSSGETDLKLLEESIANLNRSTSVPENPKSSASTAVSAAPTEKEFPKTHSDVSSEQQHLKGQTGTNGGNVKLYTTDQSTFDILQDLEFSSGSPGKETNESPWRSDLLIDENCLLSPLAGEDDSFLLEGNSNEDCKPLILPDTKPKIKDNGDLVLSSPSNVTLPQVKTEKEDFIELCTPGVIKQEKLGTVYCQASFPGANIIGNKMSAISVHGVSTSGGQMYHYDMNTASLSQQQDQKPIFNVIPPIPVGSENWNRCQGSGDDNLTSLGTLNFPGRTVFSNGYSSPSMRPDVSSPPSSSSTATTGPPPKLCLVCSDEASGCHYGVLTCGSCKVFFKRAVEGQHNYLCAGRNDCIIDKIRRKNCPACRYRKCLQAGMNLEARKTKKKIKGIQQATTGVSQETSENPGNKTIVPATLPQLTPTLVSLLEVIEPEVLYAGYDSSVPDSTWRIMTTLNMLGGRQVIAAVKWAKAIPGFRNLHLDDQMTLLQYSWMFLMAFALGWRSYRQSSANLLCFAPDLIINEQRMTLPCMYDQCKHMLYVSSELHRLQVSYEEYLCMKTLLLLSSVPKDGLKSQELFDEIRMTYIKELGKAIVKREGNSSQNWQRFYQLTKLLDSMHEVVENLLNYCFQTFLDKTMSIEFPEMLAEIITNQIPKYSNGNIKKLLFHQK

PGR = molecular target: T3, PGR (Homo sapiens, UniProt P06401); conditions: cited from earlier work
T3 sequence (P06401 1-933): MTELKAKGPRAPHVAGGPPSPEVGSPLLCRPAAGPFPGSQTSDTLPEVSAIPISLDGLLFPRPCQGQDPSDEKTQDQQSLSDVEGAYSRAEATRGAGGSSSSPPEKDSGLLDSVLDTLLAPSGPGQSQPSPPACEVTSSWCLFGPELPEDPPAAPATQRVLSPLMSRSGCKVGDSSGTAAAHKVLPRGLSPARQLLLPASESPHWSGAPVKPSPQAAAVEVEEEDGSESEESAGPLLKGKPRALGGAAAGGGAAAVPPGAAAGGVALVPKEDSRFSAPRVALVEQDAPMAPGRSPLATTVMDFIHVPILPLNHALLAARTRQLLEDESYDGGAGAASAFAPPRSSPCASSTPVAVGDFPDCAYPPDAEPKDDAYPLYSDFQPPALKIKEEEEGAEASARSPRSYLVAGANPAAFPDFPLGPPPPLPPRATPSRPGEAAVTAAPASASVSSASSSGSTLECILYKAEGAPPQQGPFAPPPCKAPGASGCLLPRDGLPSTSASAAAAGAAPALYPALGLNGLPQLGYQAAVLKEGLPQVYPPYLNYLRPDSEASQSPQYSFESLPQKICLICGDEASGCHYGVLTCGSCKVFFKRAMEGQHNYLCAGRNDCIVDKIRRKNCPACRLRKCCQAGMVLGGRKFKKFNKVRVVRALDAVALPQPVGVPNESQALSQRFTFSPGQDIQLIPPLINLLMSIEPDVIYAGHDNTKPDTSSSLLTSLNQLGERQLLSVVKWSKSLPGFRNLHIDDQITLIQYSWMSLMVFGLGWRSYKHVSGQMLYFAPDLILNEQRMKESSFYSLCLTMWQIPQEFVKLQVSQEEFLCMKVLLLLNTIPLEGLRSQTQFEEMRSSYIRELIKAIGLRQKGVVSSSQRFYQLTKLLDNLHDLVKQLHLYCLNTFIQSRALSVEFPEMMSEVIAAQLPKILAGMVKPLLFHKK

With CN(C)c1ccc([C@H]2C[C@]3(C)[C@@H](CC[C@]3(O)CCCO)[C@@H]3CCC4=CC(=O)CCC4=C32)cc1 [ZK299, Onapristone] the “inhibition of E2+R5020-stimulated LAM fibroblast proliferation” value [1] was “inhibited; also recorded: blocked”, the “E2+R5020-induced expression of P4/PGR-responsive (Greb1, Cyp7b1) and fibrotic genes (Adamtsl1, Col1a1, Col14a1)” value ([2]; 1 μM antagonist, pretreated 2 h before E2 (10 nM)+R5020 (100 nM)) was “significantly decreased; also recorded: strongest inhibition” and the “E2+R5020-stimulated expression of Col1a1 and Col12a1, blockade” value ([2]; pretreatment with 1 μM antagonist) was “blocked”. The liver toxicity [3] was “significant liver toxicity”, the “inhibition of aromatase enzyme activity” value (aromatase enzyme) was “weak aromatase inhibitor” and the anti-glucocorticoid activity [4] was “minimal or no antiglucocorticoid properties”. The “P4/PGR antagonism and PGR selectivity” value (PGR) was “highly PGR-selective pure P4 antagonist”.

Source: patent US20250186461A1, “METHODS AND COMPOSITIONS FOR TREATING AND/OR PREVENTING HERNIAS” (Northwestern University, priority 2023, published 2025)
